Source: patent US20080009418A1, “Selective Inhibitors” (Alchemia LTD., priority 2004, published 2008)

Key:
[1] = biological target: T1, Mouse urotensin (mUR2) (Mus musculus, UniProt Q8VIH9); test: Radioligand binding, mouse urotensin mUR2 membranes, FlashPlate, [125I]-Urotensin II; settings: compound at 10 μM; for A11 radioligand binding, percentage inhibition: [125I]-Urotensin II
T1 construct: purchased Perkin Elmer Biosignal
T1 sequence (Q8VIH9 1-385): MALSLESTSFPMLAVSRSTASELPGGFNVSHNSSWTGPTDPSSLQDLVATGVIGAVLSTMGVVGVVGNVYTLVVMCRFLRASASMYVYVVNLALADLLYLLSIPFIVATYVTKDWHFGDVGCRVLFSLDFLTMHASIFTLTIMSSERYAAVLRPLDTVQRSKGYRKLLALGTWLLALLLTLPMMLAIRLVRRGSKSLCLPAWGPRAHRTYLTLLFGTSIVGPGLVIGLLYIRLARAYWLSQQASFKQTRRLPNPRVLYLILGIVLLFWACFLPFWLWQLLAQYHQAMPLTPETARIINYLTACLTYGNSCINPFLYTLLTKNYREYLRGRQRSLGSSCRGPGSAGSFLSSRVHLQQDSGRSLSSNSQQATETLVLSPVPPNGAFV
Description: (§1) Cloned receptor membrane preparations from Perkin Elmer Biosignal™ were used in radioligand binding assays.
(§2) A1 Human δ-opioid (DOP), A2 Human κ-Opioid (KOP), A3 Human Melanocortin (MC3), A4 Human Melanocortin (MC4), A5 Human melanocortin (MC5), A6 Human melanin-concentrating hormone (MCH1), A7 Human μ-opioid (MOP), A8 Human neurokinin (NK1), A9 Human neuropeptide Y (NPY-Y1), A10 Human opioid (ORL1) A11 Mouse urotensin (mUR2)
(§3) Screening experiments were performed in either a 50 μl filtration or 25 μl FlashPlate assay format using the following protocol:
(§4) 19.5 μl buffer, 0.5 μl of compound diluted in DMSO, 5 μl of radioligand diluted in binding buffer.
(§5) The day prior to performing the experiment 50 μl DMSO was added to each well of the compound plates to yield compounds at a final concentration of 10 mM. Daughter plates were then created by diluting the compounds further in DMSO to a concentration of 0.5 mM. The mother plates were frozen immediately.
(§6) Immobilize membranes into FlashPlate microplates using PerkinElmer BioSignal's proprietary coating procedure. Dilute radioligand to 5× the final concentration in binding buffer. Add 19.5 μl buffer to each well of the FlashPlate. Add 0.5 μl of DMSO (total value, 5 wells), reference ligand (non-specific value, 3 wells) or compound to the corresponding wells in the FlashPlate microplate. Initiate the reaction by adding 5 μl of radioligand to each well. Apply TopSeal-A onto FlashPlate microplates. Incubate at room temperature for 1 hour in the dark. Count for 30 seconds per well on TopCount Microplate Scintillation and Luminescence Counter (PerkinElmer) using a count delay of 60 seconds.
(§7) Percentage inhibition was calculated using the following formula: [formula]

[2] = biological target: T2, Human melanin-concentrating hormone (MCH1) (Homo sapiens, UniProt Q99705); test: Radioligand binding, human melanin-concentrating hormone MCH1 membranes, FlashPlate, [125I]-S36057; settings: compound at 10 μM; for A6 radioligand binding, percentage inhibition: [125I]-S36057
T2 construct: purchased Perkin Elmer Biosignal
Description: as §1, §2, §3, §4, §5, §6, §7

[3] = biological target: T3, Human neuropeptide Y (NPY-Y1) (Homo sapiens, UniProt P25929); test: Radioligand binding, human neuropeptide Y NPY-Y1 membranes, FlashPlate, [125I]-PYY; settings: compound at 10 μM; for A9 radioligand binding, percentage inhibition: [125I]-PYY
T3 construct: purchased Perkin Elmer Biosignal
T3 sequence (P25929 1-384): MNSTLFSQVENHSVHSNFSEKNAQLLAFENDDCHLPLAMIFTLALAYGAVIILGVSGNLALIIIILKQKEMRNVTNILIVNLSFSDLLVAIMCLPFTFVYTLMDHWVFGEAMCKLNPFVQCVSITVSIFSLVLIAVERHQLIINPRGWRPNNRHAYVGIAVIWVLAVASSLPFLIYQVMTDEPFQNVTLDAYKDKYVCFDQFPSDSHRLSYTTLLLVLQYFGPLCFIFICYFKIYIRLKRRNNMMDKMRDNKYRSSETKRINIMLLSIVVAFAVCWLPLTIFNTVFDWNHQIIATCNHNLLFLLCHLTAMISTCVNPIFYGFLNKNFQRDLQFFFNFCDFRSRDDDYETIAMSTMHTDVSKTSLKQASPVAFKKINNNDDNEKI
Description: as §1, §2, §3, §4, §5, §6, §7

[4] = biological target: T4, Human opioid (ORL1) (Homo sapiens, UniProt P41146); test: Radioligand binding, human opioid ORL1 membranes, FlashPlate, [125I]-Nociceptin; settings: compound at 10 μM; for A10 radioligand binding, percentage inhibition: [125I]-Nociceptin
T4 construct: purchased Perkin Elmer Biosignal
Description: as §1, §2, §3, §4, §5, §6, §7

[5] = biological target: T5, Human neurokinin (NK1) (Homo sapiens, UniProt P25103); test: Radioligand binding, human neurokinin NK1 membranes, filtration, [125I]-Substance P; settings: compound at 10 μM; for A8 radioligand binding, percentage inhibition: [125I]-Substance P
T5 construct: purchased Perkin Elmer Biosignal
Description: as §1, §2, §3
(§8) 44 μl membranes diluted in buffer, 1 μl of compound diluted in DMSO, 5 μl of radioligand diluted in binding buffer.
as §5
(§9) Thaw membranes on ice then dilute membranes in binding buffer at a concentration of 1 Unit per well. Dilute radio-ligand to 10 times the final concentration in binding buffer. Add 44 μl of diluted membranes to each well of the deep-well plate. Add 1 μl of DMSO (total value, 5 wells), reference ligand (non-specific value, 3 wells) or compound to the corresponding wells in the deep-well plate. Initiate the reaction by adding 5 μl of radioligand to each well and vortex gently. Incubate at room temperature for 1 hour. During incubation, pre-incubate the Multiscreen Harvest plates in 0.3% PEI. Filter over pre-soaked Multiscreen Harvest plates using a Tomtec Harvester. Wash 9 times with 500 μl of cold 50 mM Tris-HCl pH 7.4 at 4° C. and air-dry for 30 minutes at room temperature under a fume hood. Apply a bottom seal to the Multiscreen Harvest plates. Add 25 μl of MicroScint-0 to each well. Apply TopSeal-A to the plate. Count for 30 seconds per well on TopCount Microplate Scintillation and Luminescence Counter (PerkinElmer) using a count delay of 60 seconds.
as §7

[6] = biological target: T6, Human Melanocortin (MC4) (Homo sapiens, UniProt P32245); test: Radioligand binding, human melanocortin MC4 membranes, FlashPlate, [125I]-NDP-αMSH; settings: compound at 10 μM; for A4 radioligand binding, percentage inhibition: [125I]-NDP-αMSH
T6 construct: purchased Perkin Elmer Biosignal
Description: as §1, §2, §3, §4, §5, §6, §7

[7] = biological target: T7, Human Melanocortin (MC3) (Homo sapiens, UniProt P41968); test: Radioligand binding, human melanocortin MC3 membranes, FlashPlate, [125I]-NDP-αMSH; settings: compound at 10 μM; for A3 radioligand binding, percentage inhibition: [125I]-NDP-αMSH
T7 construct: purchased Perkin Elmer Biosignal
Description: as §1, §2, §3, §4, §5, §6, §7

[8] = biological target: T8, Human δ-opioid (DOP) (Homo sapiens, UniProt P41143); test: Radioligand binding, human δ-opioid (DOP) membranes, FlashPlate, [3H]-Bremazocine; settings: compound at 10 μM; for A1 radioligand binding, percentage inhibition: [3H]-Bremazocine
T8 construct: purchased Perkin Elmer Biosignal
Description: as §1, §2, §3, §4, §5, §6, §7

[9] = biological target: T9, Human μ-opioid (MOP) (Homo sapiens, UniProt P35372); test: Radioligand binding, human μ-opioid (MOP) membranes, FlashPlate, [3H]-Naloxone; settings: compound at 10 μM; for A7 radioligand binding, percentage inhibition: [3H]-Naloxone
T9 construct: purchased Perkin Elmer Biosignal
Description: as §1, §2, §3, §4, §5, §6, §7

[10] = biological target: T10, Human melanocortin (MC5) (Homo sapiens, UniProt P33032); test: Radioligand binding, human melanocortin MC5 membranes, FlashPlate, [125I]-NDP-αMSH; settings: compound at 10 μM; for A5 radioligand binding, percentage inhibition: [125I]-NDP-αMSH
T10 construct: purchased Perkin Elmer Biosignal
Description: as §1, §2, §3, §4, §5, §6, §7

[11] = biological target: T11, Human κ-Opioid (KOP) (Homo sapiens, UniProt P41145); test: Radioligand binding, human κ-opioid (KOP) membranes, filtration, [3H]-Diprenorphine; settings: compound at 10 μM; for A2 radioligand binding, percentage inhibition: [3H]-Diprenorphine
T11 construct: purchased Perkin Elmer Biosignal
Description: as §1, §2, §3, §8, §5, §9, §7

T5 sequence (P25103 whole entry): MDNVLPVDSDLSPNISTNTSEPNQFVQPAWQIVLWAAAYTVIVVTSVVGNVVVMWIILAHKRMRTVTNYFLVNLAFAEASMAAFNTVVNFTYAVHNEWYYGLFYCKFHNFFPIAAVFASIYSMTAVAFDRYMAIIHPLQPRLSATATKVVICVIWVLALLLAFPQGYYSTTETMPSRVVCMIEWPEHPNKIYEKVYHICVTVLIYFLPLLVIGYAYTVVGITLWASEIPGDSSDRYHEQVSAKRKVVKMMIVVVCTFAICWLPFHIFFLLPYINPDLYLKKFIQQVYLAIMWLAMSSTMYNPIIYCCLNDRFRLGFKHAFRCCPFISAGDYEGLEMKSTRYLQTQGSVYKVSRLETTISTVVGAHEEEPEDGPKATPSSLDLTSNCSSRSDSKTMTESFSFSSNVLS
T9 sequence (P35372 whole entry): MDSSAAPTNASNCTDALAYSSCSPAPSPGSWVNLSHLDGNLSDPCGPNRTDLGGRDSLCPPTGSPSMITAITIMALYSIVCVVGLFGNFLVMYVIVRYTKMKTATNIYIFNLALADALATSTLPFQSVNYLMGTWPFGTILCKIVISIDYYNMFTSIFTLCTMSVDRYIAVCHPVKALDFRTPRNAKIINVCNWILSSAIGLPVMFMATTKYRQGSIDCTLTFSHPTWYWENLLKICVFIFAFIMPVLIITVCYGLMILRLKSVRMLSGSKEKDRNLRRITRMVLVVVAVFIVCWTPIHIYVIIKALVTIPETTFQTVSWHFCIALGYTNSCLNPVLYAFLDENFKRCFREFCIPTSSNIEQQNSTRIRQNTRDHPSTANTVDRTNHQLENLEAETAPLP
T11 sequence (P41145 whole entry): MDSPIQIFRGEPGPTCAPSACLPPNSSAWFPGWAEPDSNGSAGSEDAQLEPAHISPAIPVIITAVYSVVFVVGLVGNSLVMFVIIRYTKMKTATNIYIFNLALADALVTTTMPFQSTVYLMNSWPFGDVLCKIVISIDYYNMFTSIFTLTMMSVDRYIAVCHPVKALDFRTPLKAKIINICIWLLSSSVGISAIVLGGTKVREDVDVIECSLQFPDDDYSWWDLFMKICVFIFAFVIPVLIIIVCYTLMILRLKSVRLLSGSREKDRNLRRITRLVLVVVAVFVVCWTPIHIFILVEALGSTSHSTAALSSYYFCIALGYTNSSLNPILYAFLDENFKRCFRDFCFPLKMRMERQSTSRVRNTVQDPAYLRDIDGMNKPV
T2 sequence (Q99705 whole entry): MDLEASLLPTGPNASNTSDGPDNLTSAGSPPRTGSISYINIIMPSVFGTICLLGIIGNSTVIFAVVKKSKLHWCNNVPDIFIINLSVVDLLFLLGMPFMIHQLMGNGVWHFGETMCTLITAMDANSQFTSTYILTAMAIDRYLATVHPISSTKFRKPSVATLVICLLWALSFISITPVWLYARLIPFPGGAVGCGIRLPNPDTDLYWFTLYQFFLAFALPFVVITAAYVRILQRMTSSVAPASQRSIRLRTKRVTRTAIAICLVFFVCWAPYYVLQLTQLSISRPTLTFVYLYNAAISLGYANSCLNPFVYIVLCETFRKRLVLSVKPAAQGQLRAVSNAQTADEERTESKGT
T10 sequence (P33032 whole entry): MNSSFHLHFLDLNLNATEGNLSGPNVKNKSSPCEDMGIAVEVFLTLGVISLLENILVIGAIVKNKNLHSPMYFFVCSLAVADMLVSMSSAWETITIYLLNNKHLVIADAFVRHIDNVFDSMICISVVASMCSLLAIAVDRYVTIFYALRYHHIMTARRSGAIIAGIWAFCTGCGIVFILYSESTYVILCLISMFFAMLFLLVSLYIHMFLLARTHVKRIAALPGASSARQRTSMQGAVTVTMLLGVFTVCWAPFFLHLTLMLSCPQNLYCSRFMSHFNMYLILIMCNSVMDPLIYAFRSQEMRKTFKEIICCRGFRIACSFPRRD
T6 sequence (P32245 whole entry): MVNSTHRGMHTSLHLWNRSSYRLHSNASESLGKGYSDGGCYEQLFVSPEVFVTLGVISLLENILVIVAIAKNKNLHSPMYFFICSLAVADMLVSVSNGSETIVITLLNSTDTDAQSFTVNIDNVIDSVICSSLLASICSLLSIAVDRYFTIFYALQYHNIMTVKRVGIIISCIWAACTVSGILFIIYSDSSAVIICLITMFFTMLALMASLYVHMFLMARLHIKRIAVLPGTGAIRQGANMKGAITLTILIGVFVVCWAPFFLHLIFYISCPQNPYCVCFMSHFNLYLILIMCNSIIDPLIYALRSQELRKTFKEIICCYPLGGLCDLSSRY
T7 sequence (P41968 whole entry): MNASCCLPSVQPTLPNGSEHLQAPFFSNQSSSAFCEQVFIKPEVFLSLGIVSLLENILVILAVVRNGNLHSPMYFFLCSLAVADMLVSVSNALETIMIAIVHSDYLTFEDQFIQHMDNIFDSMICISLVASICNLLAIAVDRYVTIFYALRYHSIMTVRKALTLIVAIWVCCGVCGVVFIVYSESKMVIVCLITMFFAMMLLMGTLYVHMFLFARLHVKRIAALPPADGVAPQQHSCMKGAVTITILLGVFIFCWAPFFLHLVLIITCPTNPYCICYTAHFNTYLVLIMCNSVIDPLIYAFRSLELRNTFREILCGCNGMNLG
T4 sequence (P41146 whole entry): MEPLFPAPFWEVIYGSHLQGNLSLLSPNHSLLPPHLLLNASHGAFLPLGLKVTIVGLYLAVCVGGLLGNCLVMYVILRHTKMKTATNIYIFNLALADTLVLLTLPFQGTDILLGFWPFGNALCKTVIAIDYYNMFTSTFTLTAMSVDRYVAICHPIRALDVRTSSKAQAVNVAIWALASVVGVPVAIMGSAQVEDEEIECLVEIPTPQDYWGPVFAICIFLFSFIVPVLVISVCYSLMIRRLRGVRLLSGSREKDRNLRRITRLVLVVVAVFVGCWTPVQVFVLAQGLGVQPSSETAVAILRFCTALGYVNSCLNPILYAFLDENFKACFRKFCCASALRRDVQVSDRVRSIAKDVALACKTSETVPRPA
T8 sequence (P41143 whole entry): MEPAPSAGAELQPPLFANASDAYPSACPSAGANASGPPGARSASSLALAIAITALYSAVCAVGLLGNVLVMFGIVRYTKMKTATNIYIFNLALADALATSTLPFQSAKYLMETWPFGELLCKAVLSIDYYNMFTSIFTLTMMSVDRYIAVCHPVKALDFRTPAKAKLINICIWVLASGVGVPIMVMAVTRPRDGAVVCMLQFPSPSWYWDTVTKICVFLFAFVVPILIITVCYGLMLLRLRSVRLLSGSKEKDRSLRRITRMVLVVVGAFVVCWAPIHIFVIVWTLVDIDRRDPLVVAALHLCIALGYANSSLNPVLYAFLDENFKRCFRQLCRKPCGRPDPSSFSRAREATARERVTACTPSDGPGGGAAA

SMILES	A11 radioligand binding, percentage inhibition [1]	A6 radioligand binding, percentage inhibition [2]	A9 radioligand binding, percentage inhibition [3]	A10 radioligand binding, percentage inhibition [4]	A8 radioligand binding, percentage inhibition [5]	A4 radioligand binding, percentage inhibition [6]	A3 radioligand binding, percentage inhibition [7]	A1 radioligand binding, percentage inhibition [8]	A7 radioligand binding, percentage inhibition [9]	A5 radioligand binding, percentage inhibition [10]	A2 radioligand binding, percentage inhibition [11]	also measured
CO[C@H]1[C@H](O)[C@@H](COCc2cccc(O)c2)OC(OCCc2ccccc2)[C@@H]1NC(=O)CCNC(=N)N (stereo partly drawn) [compound 159]	− (“−” indicates less than 50% inhibition at 10 μM)	− (“−” indicates less than 50% inhibition at 10 μM)	− (“−” indicates less than 50% inhibition at 10 μM)	− (“−” indicates less than 50% inhibition at 10 μM)	+ (“+” indicates greater than 50% inhibition at 10 μM)	− (“−” indicates less than 50% inhibition at 10 μM)	− (“−” indicates less than 50% inhibition at 10 μM)	− (“−” indicates less than 50% inhibition at 10 μM)	− (“−” indicates less than 50% inhibition at 10 μM)	− (“−” indicates less than 50% inhibition at 10 μM)	− (“−” indicates less than 50% inhibition at 10 μM)	–
COC[C@H]1OC(OCCc2ccccc2)[C@H](NC(=O)CCNC(=N)N)[C@@H](OCc2ccccc2)[C@@H]1O (stereo partly drawn) [compound 46]	–	–	–	–	–	–	–	–	–	–	–	A11 radioligand binding inhibition ([1]; mouse urotensin mUR2 membranes): − (“−” indicates less than 50% inhibition at 10 μM); A6 radioligand binding inhibition ([2]; human MCH1 membranes): − (“−” indicates less than 50% inhibition at 10 μM); A9 radioligand binding inhibition ([3]; human NPY-Y1 membranes): − (“−” indicates less than 50% inhibition at 10 μM); A10 radioligand binding inhibition ([4]; human ORL1 membranes): − (“−” indicates less than 50% inhibition at 10 μM); A8 radioligand binding inhibition ([5]; human neurokinin NK1 membranes): + (“+” indicates greater than 50% inhibition at 10 μM); A4 radioligand binding inhibition ([6]; human melanocortin MC4 membranes): − (“−” indicates less than 50% inhibition at 10 μM); A3 radioligand binding inhibition ([7]; human melanocortin MC3 membranes): − (“−” indicates less than 50% inhibition at 10 μM); A1 radioligand binding inhibition ([8]; human δ-opioid (DOP) membranes): − (“−” indicates less than 50% inhibition at 10 μM); A7 radioligand binding inhibition ([9]; human μ-opioid (MOP) membranes): − (“−” indicates less than 50% inhibition at 10 μM); A5 radioligand binding inhibition ([10]; human melanocortin MC5 membranes): − (“−” indicates less than 50% inhibition at 10 μM); A2 radioligand binding inhibition ([11]; human κ-opioid (KOP) membranes): − (“−” indicates less than 50% inhibition at 10 μM)
CO[C@H]1[C@H](O)[C@@H](COCc2ccc(Cl)cc2)OC(OCc2ccc(Cl)cc2)[C@@H]1NC(=O)CCCNC(=N)N (stereo partly drawn) [compound 108]	− (“−” indicates less than 50% inhibition at 10 μM)	− (“−” indicates less than 50% inhibition at 10 μM)	− (“−” indicates less than 50% inhibition at 10 μM)	− (“−” indicates less than 50% inhibition at 10 μM)	+ (“+” indicates greater than 50% inhibition at 10 μM)	+ (“+” indicates greater than 50% inhibition at 10 μM)	+ (“+” indicates greater than 50% inhibition at 10 μM)	− (“−” indicates less than 50% inhibition at 10 μM)	− (“−” indicates less than 50% inhibition at 10 μM)	+ (“+” indicates greater than 50% inhibition at 10 μM)	− (“−” indicates less than 50% inhibition at 10 μM)	–
